{
  "source": "paper PMC6566782",
  "about": "“Prodrugs for Skin Delivery of Menahydroquinone-4, an Active Form of Vitamin K2(20), Could Overcome the Photoinstability and Phototoxicity of Vitamin K2(20)” (International Journal of Molecular Sciences, 2019)",
  "key": {"HaCaT cells [1]": {"tested_on": "HaCaT cells", "assay": "Intracellular MKO and MK-4 levels after treatment with MK-4 and MKH derivatives (MKH delivery), LC-MS/MS", "assay_type": "cell-based, Human", "details": "5 µM compound, intracellular MK-4, mean ± SD (n = 3)", "procedure": "The potential of MKH derivatives and MK-4 as dermal delivery systems of MKH were assessed by measuring intracellular MKH levels. However, accurate measurement of MKH is difficult because MKH is readily oxidized to MK-4. […] Thus, MKO levels in HaCaT cells can reflect the amount of MKH delivered into the cell and subsequently converted in the carboxylation of VKDP. In addition, MK-4 level in cells after MKH prodrugs treatment indicates the oxidative product of MKH. In this study, the intracellular concentration of MKO and MK-4 in HaCaT cells over time after treatment with MK-4, MKH-DMG, or MKH-SUC (5 μM) was determined by LC-MS/MS (Figure 7). HaCaT cells were seeded at 5.0 × 10^4 cells/well in 24-well plates and allowed to attach for 48 h. Cells were cultured in medium containing 5 μM MK-4, MKH-DMG, or MKH-SUC, then medium was removed and cells were washed twice with PBS. Cells were collected in 500 μL of PBS and sonicated. Cell homogenates were combined with an equal volume of methanol and three times volume of n-hexane, vortexed for 2 min, and centrifuged at 1750× g for 10 min. […] The residue was reconstituted with 20 μL of methanol, and subjected to LC-MS/MS, as described below. The protein concentration of the cell homogenate was determined using a BCA protein assay kit (Thermo Fisher Scientific, Waltham, MA, USA). […]"}, "HaCaT cells [2]": {"tested_on": "HaCaT cells", "assay": "Intracellular ROS generation assay (DCFH-DA) with or without UVA irradiation", "assay_type": "cell-based, Human", "details": "UVA irradiation 15 J/cm^2", "procedure": "The in vitro phototoxicity of MK-4 and MKH derivatives were assessed by measuring the intracellular ROS generation and the viability of human epidermal keratinocyte cells (HaCaT) after UVA irradiation in the presence or absence of MK-4 and MKH derivatives. Intracellular ROS generation was determined using the cell permeable probe 2′,7′-dichlorofluorescein diacetate (DCFH-DA), which rapidly reacts with hydroxyl radicals. Cells without drug treatment or UVA irradiation were used as the control. ROS generation and cell viability are shown in Figure 5 and Figure 6, respectively.\nIntracellular ROS generation was measured using 2′,7′-dichlorofluorescein diacetate (DCFH-DA; Invitrogen, Carlsbad, CA, USA) as a fluorescent probe. HaCaT cells were seeded at 1.0 × 10^5 cells/well in 96-well plates and cultured overnight. Thereafter, cells were washed with PBS and incubated with 10 µM DCFH-DA solution in PBS at 37 °C for 1 h. Following incubation, test compound solutions in PBS described above were added to each well and re-incubated for 1 h. After incubation, cells were irradiated with UVA at an irradiation intensity of 15 J/cm^2 and the fluorescence intensity (Ex: 485 nm, Em: 530 nm) was measured using an Infinite M200 PRO (Tecan Life Sciences)."}, "[3]": {"assay": "Photostability in ethanol under monochromatic light of different wavelengths, LC-MS/MS", "assay_type": "physicochemical", "details": "1 µM in ethanol, 25 °C", "procedure": "To evaluate the effect of irradiation wavelength on photostability of MK-4 and MKH-ester derivatives, 1 μM solutions of MK-4, MKH-DMG, and MKH-SUC in ethanol were irradiated with a xenon light source monochromatic light at 279, 341, 373, 404, or 435 nm, and the concentration of each compound was measured by LC-MS/MS. The log of concentration of each compound was plotted against irradiation energy (Figure 3), and the rates and half-life energies of degradation were obtained from slopes (Table 2). […] Hydrolytic degradations of MKH-DMG and MKH-SUC to their corresponding monoesters were accelerated only at the short wavelength of 279 nm (Figure 3B,C).\nSolutions of MK-4 and MKH derivatives in ethanol (1 µM) were irradiated with artificial sunlight (SOLAX 100 W XC-100 B, Seric Ltd., Tokyo, Japan) at 12,000 lx in quartz cells. Illuminance was measured using a digital luminometer (LX-1108, Mother Tool). Irradiation samples (1 µM in ethanol) were irradiated with artificial sunlight at 12,000 lx, and with monochromatic light (279, 341, 373, 404, and 435 nm) using a multi-wavelength irradiation spectrometer (MM 3, Bunkoukeiki Co., Ltd., Tokyo, Japan). Irradiation intensity was measured using an irradiation energy measurement power meter (MM 3, Bunkoukeiki Co., Ltd.).\nLC-MS/MS was performed using an LCMS-8050 Liquid Chromatograph Mass Spectrometer (Shimadzu, Kyoto, Japan) and Shimadzu HPLC System (system controller (CBM-20A), pump (LD-20AD), degasser (DGU-20As), UV detector (SPD-20A), and auto injector (SIL-20AC HT)). Separations were performed on a CAPCELL PAK C18 UG120 (3 μm, 2.0 mm × 100 mm, Shiseido Co., Ltd., Tokyo, Japan) using a mobile phase of 10 mmol/L ammonium acetate and 0.1% acetic acid in methanol and water (97:3) at a flow rate of 0.4 mL/min. Column temperature was maintained at 40 °C. The mass spectrometer was equipped with an electrospray ionization and was run in positive ion mode. Identification and quantitation were based on MS/MS-multiple reaction monitoring mode using transition ions as follows: m/z 445 → 187 for the [M+H]^+ MK-4 adduct, m/z 445 → 187 for the [M + H]^+ chromenol adduct, 619 → 58 for the [M + H]^+ MKH-DMG adduct, m/z 532 → 58 for the [M + H]^+ MKH-mono-DMG adduct, m/z 664 → 187 for the [M + H]^+ MKH-SUC adduct, m/z 564 → 187 for the [M + H]^+ MKH-mono-SUC adduct, and m/z 461 → 81 for the [M + H]^+ MKO adduct."}},
  "data": [
    {"smiles": "CC(C)=CCC/C(C)=C/CC/C(C)=C/CC/C(C)=C/CC1=C(C)C(=O)c2ccccc2C1=O", "note": "[MK-4, menaquinone-4, reference compound]", "values": [
      {"measurement": "AUCMK-4 (0–72 h)", "setting": "HaCaT cells [1]", "value": "5.628 ± 0.698 nmol·h/mg of Protein"},
      {"measurement": "intracellular ROS level", "setting": "HaCaT cells [2]", "value": "elevated in a dose-dependent manner"},
      {"measurement": "rate constant (k) of degradation", "setting": "[3]; monochromatic light 279 nm", "value": 0.533, "unit": "J^−1·cm^2"},
      {"measurement": "rate constant (k) of degradation", "setting": "[3]; monochromatic light 341 nm", "value": 0.422, "unit": "J^−1·cm^2"},
      {"measurement": "rate constant (k) of degradation", "setting": "[3]; monochromatic light 373 nm", "value": 0.151, "unit": "J^−1·cm^2"},
      {"measurement": "rate constant (k) of degradation", "setting": "[3]; monochromatic light 435 nm", "value": 0.035, "unit": "J^−1·cm^2"}
    ]}
  ]
}
